Measurements published in US9464117B2, “Herbicide-resistant proteins, encoding genes, and uses thereof” (Beijing Dabeinong Technology Group Co., Ltd., priority 2012, dated 2016).

Assays:
Assay type in all cases: in vivo
[1] = system: maize plants containing 24DT07 nucleotide sequence; assay: Herbicide-resistance effect test of the transgenic corn plants (prop root development); details: comparison of the four 24DT07 genotypes; 8960 g ae/ha
Procedure: (§1) Herbicide resistance effects tests to 2,4-D dimethyl ammonium salt and agroxone of maize plants containing 24DT07 nucleotide sequence, 24DT07 substituted nucleotide sequence, 24DT07 truncated nucleotide sequence, 24DT07 added nucleotide sequence, control nucleotide sequence respectively and wild type maize plants (stages V3-V4) were performed respectively.
(§2) Maize plants containing 24DT07 nucleotide sequence, 24DT07 substituted nucleotide sequence, 24DT07 truncated nucleotide sequence, 24DT07 added nucleotide sequence, control nucleotide sequence respectively and wild type maize plants were taken and spayed with 2,4-D dimethyl ammonium salt (8960 g ae/ha, 16-folds concentration in field), agroxone (8960 g ae/ha, 16-folds concentration in field) and blank solvent (water) respectively. Prop root development was counted 21 days after spaying. Three strains (S1, S2, and S3) of corn plants transfected with 24DT07 nucleotide sequence, two strains (S4 and S5) of corn plants transfected with 24DT07 substituted nucleotide sequence, two strains (S6 and S7) of corn plants transfected with 24DT07 truncated nucleotide sequence, two strains (S8 and S9) of corn plants transfected with 24DT07 added nucleotide sequence, two strains (S10 and S11) of corn plants transfected with control nucleotide sequence and 1 strain of wild type (CK) corn were selected and 10-15 plants from each stain were tested.

[2] = system: maize plants containing 24DT07 truncated nucleotide sequence; assay: as above; details: 8960 g ae/ha sprayed, 21 days after spraying
Procedure: as §1, §2

[3] = system: Arabidopsis T1 plants transformed with substituted 24DT07 nucleotide sequence; assay: Herbicide resistance effect test of transgenic Arabidopsis T1 plants; details: genotype 24DT07-i; for Highly resistant: 560 g ae/ha sprayed (1-fold field concentration), number of plants with growth consistent with blank solvent 7 days after spraying; for Non-resistant: 560 g ae/ha sprayed, number of dead plants 14 days after spraying
Text: (§3) 24DT07 gene was used to transform Arabidopsis for the first time. At first, T1 transformants were selected from the background of un-transformed seeds, using glufosinate-ammonium selection scheme. About 40000 T1 seeds are screened among which 195 strains of T1 generation positive transformants (PAT gene) were identified, i.e. the transformation efficiency was about 0.5%. Herbicide resistance effect tests to 2,4-D dimethyl ammonium salt and agroxone of Arabidopsis T1 plants transformed with 24DT07 nucleotide sequence, substituted 24DT07 nucleotide sequence, truncated 24DT07 nucleotide sequence, added 24DT07 nucleotide sequence, control nucleotide sequence respectively and wild-type Arabidopsis plants were performed after 18 days of planting.
(§4) Arabidopsis T1 plants transformed with 24DT07 nucleotide sequence, substituted 24DT07 nucleotide sequence, truncated 24DT07 nucleotide sequence, added 24DT07 nucleotide sequence and control nucleotide sequence respectively and wild-type Arabidopsis plants were sprayed with 2,4-D dimethyl ammonium salt (560 g ae/ha, 1-fold concentration in field), agroxone (560 g ae/ha, 1-fold concentration in field) and blank solvent (water). Resistance conditions of the plants were counted 7 days and 14 days after spraying. Plants with growth conditions consistent with blank solvent (water) 7 days after spaying were classified as highly resistant plants; Plants with curly rosette leaves 7 days after spaying were classified as moderately resistant plants; Plants incapable of bolting 14 days after spaying were classified as low-resistant plants and the dead plants 14 days after spaying were classified as non-resistant plants. Because each Arabidopsis T1 plant is an independent transformation event, significant differences of individual T1 responses can be expected under a given dose.

[4] = system: Arabidopsis T1 plants transformed with added 24DT07 nucleotide sequence; assay: as above; details: genotype 24DT07-a; for Highly resistant: 560 g ae/ha sprayed (1-fold field concentration), number of plants with growth consistent with blank solvent 7 days after spraying; for Non-resistant: 560 g ae/ha sprayed, number of dead plants 14 days after spraying
Text: as §3, §4

[5] = system: Arabidopsis T1 plants transformed with truncated 24DT07 nucleotide sequence; assay: as above; details: genotype 24DT07-t; for Highly resistant: 560 g ae/ha sprayed (1-fold field concentration), number of plants with growth consistent with blank solvent 7 days after spraying; for Non-resistant: 560 g ae/ha sprayed, number of dead plants 14 days after spraying
Text: as §3, §4

[6] = system: Arabidopsis T1 plants transformed with 24DT07 nucleotide sequence; assay: as above; details: for differences of resistance levels between Arabidopsis T1 plants transformed with 24DT07, substituted, truncated and added 24DT07 nucleotide sequence: comparison of the four 24DT07 genotypes, 560 g ae/ha; for Highly resistant: 560 g ae/ha sprayed (1-fold field concentration), number of plants with growth consistent with blank solvent 7 days after spraying; for Non-resistant: number of dead plants 14 days after spraying
Text: as §3, §4

[7] = system: maize plants containing 24DT07 substituted nucleotide sequence; assay: Herbicide-resistance effect test of the transgenic corn plants (prop root development); details: corn strain S5 (24DT07 substituted); 8960 g ae/ha sprayed; 21 days after spraying
Procedure: as §1, §2

[8] = corn strain S7 (24DT07 truncated)
[9] = genotype 24DT07, 560 g ae/ha sprayed

**Q.** With `CNC.O=C(O)COc1ccc(Cl)cc1Cl` [2,4-D dimethyl ammonium salt] as the molecule, how does the “differences of resistance levels between corn plants transformed with 24DT07, substituted, truncated and added 24DT07 nucleotide sequence” value [1] read?
**A.** didn't show significant differences

**Q.** What about the “Ratio of the normally developed prop roots” value (from here on “Ratio”) ([2]; corn strain S6 (24DT07 truncated)) of the same molecule?
**A.** 92.31%

**Q.** What about the “Ratio” value [2, 8] of the same molecule?
**A.** 93.33%

**Q.** And the Highly resistant [3]?
**A.** 18

**Q.** And the Non-resistant [3]?
**A.** 0

**Q.** What about the Highly resistant [4] of the same molecule?
**A.** 17

**Q.** And the Non-resistant [4]?
**A.** 0

**Q.** And the Highly resistant [5]?
**A.** 16

**Q.** And the Non-resistant [5]?
**A.** 0

**Q.** And the “differences of resistance levels between Arabidopsis T1 plants transformed with 24DT07, substituted, truncated and added 24DT07 nucleotide sequence” value [6]?
**A.** didn't show significant differences

**Q.** What about the Highly resistant ([6]; genotype 24DT07) of the same molecule?
**A.** 20

**Q.** And the Non-resistant [6, 9]?
**A.** 0

**Q.** `Cc1cc(Cl)ccc1OCC(=O)O` [agroxone] was tested. Which “differences of resistance levels between corn plants transformed with 24DT07, substituted, truncated and added 24DT07 nucleotide sequence” value [1] did it give?
**A.** didn't show significant differences

**Q.** And the “Ratio” value [7]?
**A.** 92.86%

**Q.** And the “Ratio” value [2, 8]?
**A.** 91.67%

**Q.** What about the Highly resistant [3] of the same molecule?
**A.** 17

**Q.** What about the Non-resistant [3] of the same molecule?
**A.** 0

**Q.** What about the Highly resistant [4] of the same molecule?
**A.** 15

**Q.** And the Non-resistant [4]?
**A.** 0

**Q.** What about the Highly resistant [5] of the same molecule?
**A.** 18

**Q.** And the Non-resistant [5]?
**A.** 0

**Q.** And the “differences of resistance levels between Arabidopsis T1 plants transformed with 24DT07, substituted, truncated and added 24DT07 nucleotide sequence” value [6]?
**A.** didn't show significant differences

**Q.** And the Highly resistant ([6]; genotype 24DT07)?
**A.** 19

**Q.** And the Non-resistant [6, 9]?
**A.** 0

**Q.** What about the Moderately resistant ([6]; genotype 24DT07, 560 g ae/ha sprayed, number of plants with curly rosette leaves 7 days after spraying) of the same molecule?
**A.** 3
